Source: patent US11523995B2, “Compositions and methods for ablating niche cells in testis and other epithelial cells and methods relating thereto” (Duke University, priority 2017, dated 2022)

Assays:
Sertoli cells = assay: Neonatal testis Sertoli cell selective depletion in vitro (testis tissue culture, immunofluorescence); assay type: cell-based, mouse; details: 0.02% BC 10 min, cultured 4 days
Experimental: Fragments of the mouse testis were incubated with 0.02% BC for 10 min. After washing several times with PBS, tissues were placed atop 1.5% agarose blocks (214530; Difco), prepared and placed in 6 well tissue culture plates (353046; Falcon) with ˜500 μl of 10% FBS+DMEM (11995-065; Gibco) to reach halfway up the side of the block. After culture, tissues were washed in PBS and fixed for immunofluorescence. The dog testis tissues were incubated with 0.02% or 0.03% BC for 10 min and cultured with 10% KnockOut Serum Replacement (KSR) (Invitrogen; 10828-028)+DMEM (Yokonishi, T., et al. Methods in Molecular Biology 927: 479-488 (2013)). The culture incubator was supplied with 5% (vol/vol) carbon dioxide in air and maintained at 37° C.
For cultured neonatal mouse testes, whole-mount immunofluorescence analysis was performed. Samples were fixed overnight with 4% (wt/vol) paraformaldehyde in PBS at 4° C. After several washes in PBTx (PBS plus 1% Triton X-100), samples were incubated in blocking solution (1% PBTx plus 10% FBS and 3% BSA) for 1 h at room temperature. Primary antibodies were diluted in blocking solution and applied to samples for 2 days at 4° C. After several washes in 1% PBT, fluorescent secondary antibodies were applied for 2 days at 4° C.
We incubated a neonatal testis in 0.02% BC solution for 10 min (or PBS as a control), washed the testis several times with PBS and cultured for 4 days at the surface/air interface in wells atop an agarose block (FIG. 1). At the end of that time, the testis was fixed and stained for immunofluorescence analysis using an antibody against the Sertoli cell marker, SOX9 (Sry-box 9). […] Although the number of F4/80 positive macrophages was increased in the interstitium of drug treated testis, other cell types in the testis including GFRα1 (GDNF family receptor al) and E-CAD (Cadherin1)-positive SSCs, and 3βHSD (3β-hydroxysteroid dehydrogenase)-positive Leydig cells were spared.

SSCs = assay: SSC kinetics after BC treatment in DND1-EGFP mouse; assay type: in vivo
Experimental: Host mice were anesthetized. A glass needle was back-loaded with the drug and 0.02% bromophenol blue to track the success of the injection and extent of delivery into the tissue. The mixture was injected into the rete-testis.
We used a DND1 (dead end homolog 1)-EGFP mouse to investigate SSC kinetics after BC treatment. In this transgenic mouse, all SSCs including undifferentiated SSCs and differentiating spermatogonia express EGFP. 0.02% BC (or PBS control) was injected into seminiferous tubules of adult testis. […] Although Sertoli cells and germ cells were lost in drug affected tubules, cord structure, Leydig cells, and PMCs were normal.

epithelial cells = assay: In vitro epithelial cell ablation in kidney, GI tract, liver and lung tissue culture; assay type: cell-based, mouse; details: 0.03% BC 10 min, cultured 4 days
Experimental: Fragments of the mouse kidney, GI tract, liver and lung were incubated with 0.03% BC for 10 min. After washing several times with PBS, tissues were placed atop 1.5% agarose blocks (214530; Difco), prepared and placed in 6 well tissue culture plates (353046; Falcon) with ˜500 μl of 10% KnockOut Serum Replacement (KSR) (Invitrogen; 10828-028)+DMEM (11995-065; Gibco) to reach halfway up the side of the block. After culture, tissues were washed in PBS and fixed for immunofluorescence. The culture incubator was supplied with 5% (vol/vol) carbon dioxide in air and maintained at 37° C.
We incubated a neonatal kidney, GI tract, liver and lung tissues in 0.03% BC solution for 10 min, washed the tissues several times with PBS and cultured for 4 days at the surface/air interface in wells atop an agarose block (FIG. 9). At the end of that time, the tissues were fixed and stained for immunofluorescence analysis using an antibody against E-CAD (Cadherin1), epithelial marker. […] Although epithelial cells were eliminated in drug treated tissues, LMN (laminin) positive basement membrane and stromal cells which is stained with PDGFRβ were maintained.

[1] = test system: bladder epithelial cells, urothelium; assay: BC injection into bladder in vivo; parameters: species or system mouse
Experimental: 2 months old female mice were anesthetized using Avertin or Isoflurane as anesthetic. Using forceps, the top of the urethral orifice was pinched and pulled up without obstructing the urethra at a ˜45° angle. The catheter tubing end was attachded to a 1 mL syringe, and the tip of the tubing rubbed in medicine mineral jelly. The jelly-topped catheter was carefully inserted into the urethra at a ˜45° angle. The syringe was detached from the catheter, and the mouse's stomach was palpated to produce urine. Using another syringe and catheter, the urine that is produced was aspirated, and emptied into other towel. 20 uL of the BC solution (or PBS) was pipetted directly into the catheter using a pipet tip. It was ensured that the pipet tip contacted the catheter, then the cylinder was fully depressed for ˜3 seconds. The liquid was pushed into the bladder by injecting ˜20 uL of air using a syringe. The catheter was removed and the mouse put back into its cage.
We injected a solution of 0.004%, 0.06% BC into the bladder of anesthetized adult female mice to test the effects of the drug on bladder epithelial cells, urothelium. […] However, six days after treatment, urothelium had disappeared from approximately 80% of 0.06% BC treated bladder, some mesenchymal cells were found on straining with antibodies against PDGFRβ and NG2.

enteric nerve plexus = details: GI tract treated in vivo; cited from earlier work

**Q.** With benzalkonium chloride [BC] as the substance, how does the “Sertoli cell elimination (SOX9 immunofluorescence)” value (Sertoli cells) read?
**A.** The value was “specifically eliminated Sertoli cells”.

**Q.** What about the “effect on other testis cell types (GFRα1 and E-CAD-positive SSCs, 3βHSD-positive Leydig cells)” value (Sertoli cells) of the same substance?
**A.** Its value is “spared”.

**Q.** And the “number of F4/80 positive macrophages in the interstitium” value (Sertoli cells)?
**A.** Its value is “increased”.

**Q.** What about the “SSC loss (DND1-EGFP)” value (SSCs; 0.02% BC into seminiferous tubules, three days after Sertoli cells were depleted (7 days post BC)) of the same substance?
**A.** The value was “SSCs had also disappeared”.

**Q.** What about the “cord structure, Leydig cells and PMCs in drug affected tubules” value (SSCs; 0.02% BC, 7 days post treatment) of the same substance?
**A.** Its value is “normal”.

**Q.** What about the “LMN positive basement membrane and PDGFRβ stromal cells” value (epithelial cells) of the same substance?
**A.** Its value is “maintained”.

**Q.** And the “epithelial cell elimination (E-CAD immunofluorescence)” value (epithelial cells; neonatal kidney, GI tract, liver and lung)?
**A.** Its value is “specifically eliminated epithelial cells”.

**Q.** And the inflammation in bladder ([1]; 0.004% BC)?
**A.** The inflammation in bladder was “did not cause inflammation”.

**Q.** What about the urothelium depletion ([1]; 0.004% BC, day 6) of the same substance?
**A.** Its urothelium depletion is “urothelium depletion was not detected”.

**Q.** What about the “macrophage invasion in bladder” value ([1]; 0.03% BC (so in the source)) of the same substance?
**A.** The value was “Macrophage invasion were observed”.

**Q.** What about the “urothelium detachment in the lumen of the bladder” value ([1]; 0.06% BC, day 6) of the same substance?
**A.** Its value is “urothelium detachment was observed”.

**Q.** And the “part of treated bladder from which urothelium had disappeared” value ([1]; 0.06% BC, six days after treatment)?
**A.** The value was “approximately 80%”.

**Q.** And the “removal of enteric nerve plexus” value (enteric nerve plexus)?
**A.** Its value is “remove the mouse and rat enteric nerve plexus”.
